In patent publication US8128943B2, “Use of oxazole derivatives for controlling fish parasites” (Novartis AG, priority 2005, dated 2012):

Legend:
salmon lice [1] = test: Toxicity to salmon lice, contact action test in sea water beakers; type: in vivo, salmon louse; conditions: after 24 hours; lowest concentration of 5 μg/l in sea water, 10° C.; adult salmon lice
Procedure: Biological Examples 1. Toxicity to Salmon Lice (In Vitro Test) a) Collecting and Cultivating the Salmon Lice
Adult and pre-adult stages of the salmon louse are gently removed with broad forceps from naturally infected Atlantic salmon which have been kept in fish farms, separated according to stage and sex, and kept in sea water tanks at 10° C. and under continuous aeration. The sea water used for cultivating the lice comes from the fish farm from which the infected salmon have been taken. The tests themselves are carried out over 48 hours after collecting the lice.
b) In Vivo Test for Determining the Contact Action of the Control Agent
Into each of three test sets of three 500 ml-glass beakers, filled with sea water (salinity […], temperature 10° C.) containing 5, 500 and 5000 μg/l of the active substance, respectively, 5 female and 5 male adults of salmon lice are added. The beaker are then transferred to an incubator and held at 10° C. for 48 hours in the dark. Live survival of the salmon lice is determined at 1, 24 and 48 hours from the start of the exposure. All lice are examined and recorded as alive, moribund or dead.

salmon lice [2] = test: Toxicity against salmon lice (in vivo test) on naturally infected Atlantic salmon, bath treatment; conditions: long lasting tests on salmon; one single treatment at 0.1 ppm
Procedure: 2. Toxicity Against Salmon Lice (In Vivo Test)
Five naturally infected Atlantic salmon are taken from the cage and transferred to well aerated sea water tanks. They remain there for 48 hours for acclimatization, and feed is withheld for 24 hours before the addition of test compound. A group of 5 salmon is treated at a concentration of 1.0 ppm of test compound, and a second group of 5 salmon is treated at a concentration of 0.1 ppm. The fish are kept for 24 hours in fresh sea water (without test compound) and a count is then made of dead and still living parasites. An untreated group of fish is also included in the evaluation. The test is carried out in triplicate.

fish = test: Tolerance by fish in long lasting tests on salmon; type: in vivo
sea lice = conditions: in sea water; cited from earlier work

SMILES	survival rate (salmon lice [1])	concentration required / effective to combat sea lice (sea lice)	further results
FC(F)(F)c1ccc(-c2ccc(C3COC(c4c(Cl)cccc4Cl)=N3)cc2)cc1 (centres unmarked) [2-(2,6-Dichlorophenyl)-4-(4′-trifluoromethylbiphenyl-4-yl)-4,5-dihydro-oxazole]	0%		
Fc1cccc(F)c1C1=NC(c2ccc(-c3ccc(C(F)(F)F)cc3)cc2)CO1 (centres unmarked) [2-(2,6-Difluorophenyl)-4-(4′-trifluoromethylbiphenyl-4-yl)-4,5-dihydro-oxazole]	0%		control (salmon lice [2]): 100%; duration of 100% control (salmon lice [2]): at least 3 month; tolerance by fish (fish): well tolerated by fish
Fc1cccc(Cl)c1C1=NC(c2ccc(-c3ccc(C(F)(F)F)cc3)cc2)CO1 (centres unmarked) [2-(2-Chloro-6-fluorophenyl)-4-(4′-trifluoromethylbiphenyl-4-yl)-4,5-dihydro-oxazole]	0%		
COP(=O)(OC)OC=C(Cl)Cl [Dichlorvos, 2,2-dichloroethenyldimethyl phosphate]		≥ 1 ppm	
COP(=O)(OC)C(O)C(Cl)(Cl)Cl (centres unmarked) [Trichlorfon, dimethyl-2,2,2-trichloro-1-hydroxyethylphosphonate]		300 ppm	
